Results taken from patent US10966949B2, “Dietary supplementation to achieve oxy-redox homeostasis and epigenetic stability” (PARTHENOGEN SAGL, priority 2015, dated 2021).

Columns and labels:
[1] = test system: Agouti gene Avy; test: Agouti-yellow coat colour of offspring of supplemented VY dams (DNA methylation marking); assay type: in vivo, mouse; details: dams' diet fortified during gestation, human-equivalent dose, n=10; standard diet 66%
From the text: Mice embryos carrying the transgenic Agouti gene Avy will develop during gestation an Agouti-yellow color hair instead of the normal brown color proportionally to the lack of cytosine methylation at the relevant gene promoter. Mothers with a good DNA methylation function during early embryogenesis will generate offspring exerting less of the yellow color, thus the proportion of yellow color in the offspring can be used as a measure of efficiency of DNA methylation marking. Newborn mice are classified as Y0 to Y5 according to the amount of yellow phenotype, from Y0 for those without yellow hair up to Y5 in those fully colored in yellow. Dams of the inbred agouti mouse strain VY underwent diversified feeding during their gestation: their standard diet (n=10), or; their standard diet fortified with folic acid in amounts equivalent to a human dose of 400 μg daily (n=10), or; their standard diet fortified with the substances in amounts equivalent to a human dose of 1 tablet per day of the formulation of EXAMPLE 1 (n=10). The offspring was classified Y0 to Y5 according to the amount of yellow colour. In the standard diet group the rate of offspring abundant Agouti yellow color (Y3 to Y5) was 66%, which decreased to 45% in the offspring from folic acid supplementation and to 31% in the offspring supplemented by the composition according to the invention.

[2] = test system: plasma total antioxidant capacity (TAC); test: Plasma total antioxidant capacity (TAC) in regular smokers, cross-over; assay type: in vivo, human; details: ten male smokers
Description: Ten male subjects regularly smoking 15 cigarettes per day or more assumed the composition formulated according to EXAMPLE 1, 1 tablet per day during 1 week or 1000 mg daily of vitamin C by the oral route for 1 week according to a cross-over design with a 1 month wash-out interval between the treatments. The plasma total antioxidant capacity (TAC) was measured by means of a colorimetric assay kit before and after each of the treatment periods in all subjects. The average TAC values expressed as μmol trolox equivalents increased from 472±36 to 522±32 (increase=11%) following one week supplementation with the powerful direct antioxidant vitamin C and from 468±31 to 565±36 (increase=21%) following one week supplementation with the composition according to the invention. Thus, the TAC increase provided by the aforementioned composition was of the same magnitude, if not higher, than that induced by full doses of a potent direct antioxidant.

[3] = test system: plasma total antioxidant capacity (TAC); test: Plasma total antioxidant capacity (TAC) in healthy young males, cross-over; assay type: in vivo, human
Description: Ten young male subjects aged 18-25, following a healthy diet and virtually free from diseases assumed the composition formulated according to EXAMPLE 1, 1 tablet per day, for 1 week or 1000 mg daily of vitamin C by the oral route for 1 week according to a cross-over design with a 1 month wash-out interval between the treatments. The plasma total antioxidant capacity (TAC) was measured by means of a colorimetric assay kit before and after each of the treatment periods in all subjects. The average TAC values expressed as μmol trolox equivalents increased from 572±33 to 646±20 (increase=13%) following one week supplementation with the powerful direct antioxidant vitamin C whereas it remained stable (from 570±31 to 578±26, increase=1%) following one week supplementation with the composition according to the invention.

[4] = test system: patients with type 2 diabetes mellitus; test: Adjuvant treatment to metformin in newly diagnosed type 2 diabetes mellitus; assay type: in vivo, human
From the text: Thirty male patients newly diagnosed as affected by type 2 diabetes mellitus and starting a treatment with metformin, 1-2 gr daily, where randomly assigned to a 3-month adjuvant treatment with the composition formulated according to EXAMPLE 1, 1 tablet per day, or no treatment.

[5] = all patients on metformin 1-2 gr daily, 3 months

With Nc1nc2ncc(CNc3ccc(C(=O)N[C@@H](CCC(=O)O)C(=O)O)cc3)nc2c(=O)[nH]1 [folic acid] the “rate of offspring with abundant Agouti yellow color (Y3 to Y5)” value [1] was 45%.
With O=C1O[C@H]([C@@H](O)CO)C(O)=C1O [vitamin C] the “average plasma TAC before treatment” value ([2]; 15 cigarettes per day or more, before one week supplementation) was 472±36 μmol trolox equivalents, the “average plasma TAC after treatment” value ([2]; after one week supplementation) was 522±32 μmol trolox equivalents and the TAC increase ([2]; one week supplementation) was 11%. The “average plasma TAC after treatment” value ([3]; ten healthy young males aged 18-25, after one week supplementation) was 646±20 μmol trolox equivalents, the “average plasma TAC before treatment” value ([3]; ten healthy young males aged 18-25, before one week supplementation) was 572±33 μmol trolox equivalents and the TAC increase ([3]; ten healthy young males, one week supplementation) was 13%.
For CN(C)C(=N)N=C(N)N [metformin], the “plasma homocysteine at the end of treatment” value [4, 5] was 14.4 ± 2.1 µmol/L, the “serum HbA1C percentage at end” value [4, 5] was 9.2% and the “serum HbA1C percentage at baseline” value ([4]; all patients on metformin 1-2 gr daily, baseline) was 10.4%. The “plasma homocysteine at baseline” value ([4]; male type 2 diabetes patients starting metformin 1-2 gr daily, baseline) was 12.04 ± 1.6 µmol/L.
